Publication PMC4450297, “Screening Active Compounds from Garcinia Species Native to China Reveals Novel Compounds Targeting the STAT/JAK Signaling Pathway” (BioMed Research International, 2015)

Columns and labels:
Test in all cases: Cell panel screen (CellTiter-Glo)
Format in all cases: cell-based, human
A498 = A498 (listed under Lung), 20 micromolar, 72 hrs
Protocol: (§1) All cells were obtained from the cell bank of the American Type Culture Collection (ATCC) and cultured in the supplier's recommended media supplemented with 10% FBS. The cell panel screen was measured using the CellTiter-Glo assay (Promega, Madison, WI) following a standard protocol. Briefly, cancer cells were seeded in 96-well plates and cultured overnight at 37°C with or without 5% CO2 in an incubator. Each compound was dissolved with limited DMSO and diluted to a certain concentration with culture medium and then added to the corresponding well of the cell plate. The final concentration of compound was 20 μM. The control cells (without treatment) received the same amount of DMSO and were incubated under the same conditions. After 72 h cultivation, 100 μL of the CellTiter-Glo reagent was added directly to each well for 10-minute incubation. The plate was then read on a FlexStation 3 microplate luminometer (Molecular Devices, USA) to monitor the luminescence signal generated by the luciferase-catalyzed reaction of luciferin and ATP. The percent of growth inhibition was calculated using the following formula: (untreated cells − treated cells)/(untreated cells − background without cells) ∗ 100.

A704 = A704 (Kidney), 20 micromolar, 72 hrs
Protocol: as §1

BT-474 = BT-474 (Breast), 20 micromolar, 72 hrs
Protocol: as §1

BT-549 = BT-549 (Breast), 20 micromolar, 72 hrs
Protocol: as §1

Bel-7402 = Bel-7402 (Liver), 20 micromolar, 72 hrs
Protocol: as §1

C3A = C3A (Liver), 20 micromolar, 72 hrs
Protocol: as §1

C8166 = C8166 (Leukemia), 20 micromolar, 72 hrs
Protocol: as §1

CCF-STTG1 = CCF-STTG1 (Brain), 20 micromolar, 72 hrs
Protocol: as §1

CW-2 = CW-2 (Colon), 20 micromolar, 72 hrs
Protocol: as §1

ChaGo-K-1 = ChaGo-K-1 (Lung), 20 micromolar, 72 hrs
Protocol: as §1

Colo 205 = conditions: Colo 205, 20 micromolar, 72 hrs
Protocol: as §1

HCC1395 = HCC1395 (Breast), 20 micromolar, 72 hrs
Protocol: as §1

HCC1569 = HCC1569 (Breast), 20 micromolar, 72 hrs
Protocol: as §1

HCC1599 = HCC1599 (Breast), 20 micromolar, 72 hrs
Protocol: as §1

HCC1937 = HCC1937 (Breast), 20 micromolar, 72 hrs
Protocol: as §1

HEC-1-A = HEC-1-A (Uterus), 20 micromolar, 72 hrs
Protocol: as §1

HGC-27 = HGC-27 (Stomach), 20 micromolar, 72 hrs
Protocol: as §1

HPAF-II = HPAF-II (Pancreas), 20 micromolar, 72 hrs
Protocol: as §1

HT-1197 = HT-1197 (Urinary bladder), 20 micromolar, 72 hrs
Protocol: as §1

J82 = J82 (Urinary bladder), 20 micromolar, 72 hrs
Protocol: as §1

M059J = M059J (Brain), 20 micromolar, 72 hrs
Protocol: as §1

MSTO-211-H = MSTO-211-H (Lung), 20 micromolar, 72 hrs
Protocol: as §1

NCI-H1623 = NCI-H1623 (Lung), 20 micromolar, 72 hrs
Protocol: as §1

NCI-H1694 = NCI-H1694 (Lung), 20 micromolar, 72 hrs
Protocol: as §1

NCI-H1770 = NCI-H1770 (Lung), 20 micromolar, 72 hrs
Protocol: as §1

NCI-H2347 = NCI-H2347 (Lung), 20 micromolar, 72 hrs
Protocol: as §1

NCI-H2405 = NCI-H2405 (Lung), 20 micromolar, 72 hrs
Protocol: as §1

NCI-H28 = NCI-H28 (Lung), 20 micromolar, 72 hrs
Protocol: as §1

NCI-H524 = NCI-H524 (Lung), 20 micromolar, 72 hrs
Protocol: as §1

Panc 03.27 = Panc 03.27 (Pancreas), 20 micromolar, 72 hrs
Protocol: as §1

RL95 = RL95 (Uterus), 20 micromolar, 72 hrs
Protocol: as §1

SW13 = SW13 (Adrenal gland), 20 micromolar, 72 hrs
Protocol: as §1

T47D = T47D (Breast), 20 micromolar, 72 hrs
Protocol: as §1

T98G = T98G (Brain), 20 micromolar, 72 hrs
Protocol: as §1

TCCSUP = TCCSUP (Urinary bladder), 20 micromolar, 72 hrs
Protocol: as §1

ZR-75-30 = ZR-75-30 (Breast), 20 micromolar, 72 hrs
Protocol: as §1

Compound | Percent Inhibition (A498) [%] | Percent Inhibition (A704) [%] | Percent Inhibition (BT-474) [%] | Percent Inhibition (BT-549) [%] | Percent Inhibition (Bel-7402) [%] | Percent Inhibition (C3A) [%] | Percent Inhibition (C8166) [%] | Percent Inhibition (CCF-STTG1) [%] | Percent Inhibition (CW-2) [%] | Percent Inhibition (ChaGo-K-1) [%] | Percent Inhibition (Colo 205) [%] | Percent Inhibition (HCC1395) [%] | Percent Inhibition (HCC1569) [%] | Percent Inhibition (HCC1599) [%] | Percent Inhibition (HCC1937) [%] | Percent Inhibition (HEC-1-A) [%] | Percent Inhibition (HGC-27) [%] | Percent Inhibition (HPAF-II) [%] | Percent Inhibition (HT-1197) [%] | Percent Inhibition (J82) [%] | also measured
O=C(c1ccc(O)c(O)c1)c1c(O)cc(O)cc1O [gl-25] | -10 | -5 | -3 | -10 | -5 | -3 | 3 | 9 | -2 | -26 | -1 | -8 | 1 | 11 | 0 | 5 | -3 | 1 | 5 | 1 | Percent Inhibition (M059J): -9%; Percent Inhibition (MSTO-211-H): -30%; Percent Inhibition (NCI-H1623): 0%; Percent Inhibition (NCI-H1694): -12%; Percent Inhibition (NCI-H1770): -10%; Percent Inhibition (NCI-H2347): -13%; Percent Inhibition (NCI-H2405): -9%; Percent Inhibition (NCI-H28): -9%; Percent Inhibition (NCI-H524): -74%; Percent Inhibition (Panc 03.27): -14%; Percent Inhibition (RL95): -8%; Percent Inhibition (SW13): -10%; Percent Inhibition (T47D): -8%; Percent Inhibition (T98G): -2%; Percent Inhibition (TCCSUP): -5%; Percent Inhibition (ZR-75-30): -3%
CC(C)=CCc1c(O)cc2oc3cc(O)c(O)c(CCC(C)(C)O)c3c(=O)c2c1O [bn-16, Garcinone C] | 65 | 62 | 83 | 74 | 91 | 43 | 88 | 65 | 95 | 91 | 97 | 94 | 81 | 94 | 80 | 61 | 77 | 75 | 85 | 85 | Percent Inhibition (M059J): 78%; Percent Inhibition (MSTO-211-H): 93%; Percent Inhibition (NCI-H1623): 67%; Percent Inhibition (NCI-H1694): 99%; Percent Inhibition (NCI-H1770): 87%; Percent Inhibition (NCI-H2347): 73%; Percent Inhibition (NCI-H2405): 73%; Percent Inhibition (NCI-H28): 71%; Percent Inhibition (NCI-H524): 98%; Percent Inhibition (Panc 03.27): 86%; Percent Inhibition (RL95): 69%; Percent Inhibition (SW13): 96%; Percent Inhibition (T47D): 62%; Percent Inhibition (T98G): 91%; Percent Inhibition (TCCSUP): 88%; Percent Inhibition (ZR-75-30): 94%
CC(C)=CCc1c2c(c(O)c3c1O[C@]14C(=C[C@@H]5C[C@H]1C(C)(C)O[C@@]4(C/C=C(\C)CO)C5=O)C3=O)C=CC(C)(C)O2 [GB18] | 93 | 99 | 99 | 99 | 99 | 99 | 99 | 99 | 99 | 99 | 99 | 99 | 99 | 99 | 98 | 99 | 99 | 99 | 99 | 99 | Percent Inhibition (M059J): 99%; Percent Inhibition (MSTO-211-H): 99%; Percent Inhibition (NCI-H1623): 99%; Percent Inhibition (NCI-H1694): 99%; Percent Inhibition (NCI-H1770): 99%; Percent Inhibition (NCI-H2347): 97%; Percent Inhibition (NCI-H2405): 99%; Percent Inhibition (NCI-H28): 98%; Percent Inhibition (NCI-H524): 100%; Percent Inhibition (Panc 03.27): 99%; Percent Inhibition (RL95): 99%; Percent Inhibition (SW13): 99%; Percent Inhibition (T47D): 99%; Percent Inhibition (T98G): 99%; Percent Inhibition (TCCSUP): 99%; Percent Inhibition (ZR-75-30): 99%
Bannaxanthone E [bn-3] | 96 | 98 | 90 | 97 | 98 | 78 | 98 | 93 | 99 | 97 | 99 | 98 | 97 | 98 | 98 | 88 | 98 | 92 | 98 | 98 | Percent Inhibition (M059J): 97%; Percent Inhibition (MSTO-211-H): 98%; Percent Inhibition (NCI-H1623): 95%; Percent Inhibition (NCI-H1694): 99%; Percent Inhibition (NCI-H1770): 98%; Percent Inhibition (NCI-H2347): 89%; Percent Inhibition (NCI-H2405): 96%; Percent Inhibition (NCI-H28): 95%; Percent Inhibition (NCI-H524): 99%; Percent Inhibition (Panc 03.27): 92%; Percent Inhibition (RL95): 98%; Percent Inhibition (SW13): 98%; Percent Inhibition (T47D): 96%; Percent Inhibition (T98G): 99%; Percent Inhibition (TCCSUP): 96%; Percent Inhibition (ZR-75-30): 99%
